Laboratory results as given in ChEMBL document CHEMBL3638993, “Dihydrofolate reductase inhibitors” (2014).

Experiments:
Dihydrofolate reductase [1] = biological target: T1, Dihydrofolate reductase (Homo sapiens, UniProt P00374); experiment: (§1) Inhibition Assay: Antibacterial activity as measured by the minimal inhibitory concentrations (MIC) and minimal bactericidal concentrations of compounds are well known (see., e.g., National Committee for Clinical Laboratory Standards 2000 Performance standards for antimicrobial disk susceptibility tests: approved standard, 7th ed. M2-A7, vol. 20, no. 1, Committee for Clinical Laboratory Standards, Wayne, Pa.).
T1 sequence (P00374 whole entry): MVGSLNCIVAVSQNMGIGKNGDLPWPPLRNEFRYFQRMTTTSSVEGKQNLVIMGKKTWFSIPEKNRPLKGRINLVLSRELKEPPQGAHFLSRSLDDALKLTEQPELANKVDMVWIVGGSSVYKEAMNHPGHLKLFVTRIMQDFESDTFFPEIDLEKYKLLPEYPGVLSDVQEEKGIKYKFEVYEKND

Dihydrofolate reductase [2] = biological target: Dihydrofolate reductase (Staphylococcus aureus, UniProt P0A017); experiment: as §1
Chain of Dihydrofolate reductase (Staphylococcus aureus, UniProt P0A017) (P0A017 whole entry): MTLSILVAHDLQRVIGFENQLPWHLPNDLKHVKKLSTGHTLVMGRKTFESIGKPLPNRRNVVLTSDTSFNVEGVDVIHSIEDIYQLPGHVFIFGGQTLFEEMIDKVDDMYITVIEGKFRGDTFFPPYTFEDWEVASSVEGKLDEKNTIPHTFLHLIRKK

Compound: Cc1c(C(=O)OC(C)(C)C)nc(-c2cccs2)n1-c1ccc2c(N)nc(N)nc2c1
- Ki (Dihydrofolate reductase [1]): 1910 nM
- Ki (Dihydrofolate reductase [2]): 0.2 nM
